ChEMBL document CHEMBL4138087, “Designing multi-targeted agents: An emerging anticancer drug discovery paradigm” (Eur J Med Chem, 2017)

Assays:
[1] = target: Epidermal growth factor receptor (Homo sapiens, UniProt P00533); assay: Inhibition of human A431 cells derived EGFR by ELISA
[2] = target: Proto-oncogene tyrosine-protein kinase Src (Homo sapiens, UniProt P12931); assay: Inhibition of Src kinase (unknown origin)
A-431 [3] = assay: Antiproliferative activity in human A431 Cells after 72 hrs by SRB assay; assay type: functional, cell-based; settings: A-431, 72 h
A-431 [4] = assay: Potency index, ratio of temozolomide IC50 to compound IC50 for human A431 Cells; assay type: functional

Sequence of Proto-oncogene tyrosine-protein kinase Src (P12931 2-536 limits assumed): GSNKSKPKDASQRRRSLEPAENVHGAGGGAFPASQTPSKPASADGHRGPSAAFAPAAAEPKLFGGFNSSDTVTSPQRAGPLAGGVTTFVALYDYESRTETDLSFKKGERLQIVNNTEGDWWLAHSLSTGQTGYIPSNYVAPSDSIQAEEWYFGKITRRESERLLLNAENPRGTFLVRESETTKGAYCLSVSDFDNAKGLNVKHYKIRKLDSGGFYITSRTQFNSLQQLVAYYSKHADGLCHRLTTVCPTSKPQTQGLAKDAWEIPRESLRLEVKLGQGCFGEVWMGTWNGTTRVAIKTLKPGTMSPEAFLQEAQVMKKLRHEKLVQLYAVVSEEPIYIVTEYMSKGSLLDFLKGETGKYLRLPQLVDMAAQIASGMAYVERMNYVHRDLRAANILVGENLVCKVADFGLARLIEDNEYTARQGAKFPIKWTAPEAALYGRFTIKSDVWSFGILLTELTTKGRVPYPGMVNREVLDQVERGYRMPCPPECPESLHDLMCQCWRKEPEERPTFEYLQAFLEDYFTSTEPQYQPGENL
Sequence of Epidermal growth factor receptor (P00533 whole entry): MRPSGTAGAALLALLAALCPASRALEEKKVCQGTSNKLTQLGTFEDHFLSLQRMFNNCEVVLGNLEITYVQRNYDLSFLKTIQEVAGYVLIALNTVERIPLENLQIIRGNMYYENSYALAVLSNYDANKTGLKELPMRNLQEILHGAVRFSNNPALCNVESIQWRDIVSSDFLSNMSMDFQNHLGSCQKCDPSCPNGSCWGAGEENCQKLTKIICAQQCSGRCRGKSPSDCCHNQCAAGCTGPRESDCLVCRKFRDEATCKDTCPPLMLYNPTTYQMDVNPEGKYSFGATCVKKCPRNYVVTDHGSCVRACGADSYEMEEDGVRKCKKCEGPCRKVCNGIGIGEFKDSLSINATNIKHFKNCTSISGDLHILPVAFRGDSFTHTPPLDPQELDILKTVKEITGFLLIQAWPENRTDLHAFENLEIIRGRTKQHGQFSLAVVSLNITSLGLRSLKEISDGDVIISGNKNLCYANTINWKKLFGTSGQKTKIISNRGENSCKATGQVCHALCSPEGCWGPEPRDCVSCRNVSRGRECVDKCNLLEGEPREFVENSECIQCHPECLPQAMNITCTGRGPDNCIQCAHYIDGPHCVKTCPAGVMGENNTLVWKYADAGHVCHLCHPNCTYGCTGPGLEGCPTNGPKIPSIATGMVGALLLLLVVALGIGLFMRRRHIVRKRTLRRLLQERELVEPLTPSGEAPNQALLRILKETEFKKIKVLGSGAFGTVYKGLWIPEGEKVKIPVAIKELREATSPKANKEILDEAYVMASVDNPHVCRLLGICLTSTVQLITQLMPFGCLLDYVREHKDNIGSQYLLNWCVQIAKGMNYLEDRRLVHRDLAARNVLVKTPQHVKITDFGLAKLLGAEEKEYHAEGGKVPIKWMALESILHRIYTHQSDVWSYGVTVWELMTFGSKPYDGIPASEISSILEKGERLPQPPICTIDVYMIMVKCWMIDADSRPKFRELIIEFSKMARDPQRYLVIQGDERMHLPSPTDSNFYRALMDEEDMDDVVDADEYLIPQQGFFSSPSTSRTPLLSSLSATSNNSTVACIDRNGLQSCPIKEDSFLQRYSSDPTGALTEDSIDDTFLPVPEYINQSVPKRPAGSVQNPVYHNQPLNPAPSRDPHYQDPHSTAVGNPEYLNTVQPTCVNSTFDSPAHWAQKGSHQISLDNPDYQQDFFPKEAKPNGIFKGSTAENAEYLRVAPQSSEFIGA

IC50 [1] | IC50 [2] | IC50 (A-431 [3]) | SMILES | Ratio IC50 (A-431 [4])
0.32 µM | 2.9 µM |  | CN(CCN(C)Cc1ccc(C(=O)Nc2ccc3ncnc(Nc4cccc(Cl)c4)c3c2)cc1)CCn1nc(-c2ccc(Cl)cc2)c2c(N)ncnc21 | 
 |  | 36 µM | C/N=N/Nc1ccc2ncnc(Nc3cccc(C)c3)c2c1 | 10
 |  | 59 µM | Cc1cccc(Nc2ncnc3ccc(N)cc23)c1 | 
